According to patent US20150011751A1, “NOVEL TRIAZINE DERIVATIVE” (CARNA BIOSCIENCES, INC., priority 2012, published 2015):

Experiments:
BTK = BTK (Homo sapiens, UniProt Q06187); assay: Test of activity inhibition against BTK (mobility shift assay, QuickScout Screening Assist MSA)
Description: Kinase activity was measured by a mobility shift assay (MSA) method using QuickScout Screening Assist (trademark) MSA (commercially available kit, manufactured by Carna Biosciences, Inc.). FITC-labeled SRCtide peptide supplied with the kit was used as a substrate of a kinase reaction.
The heights of the respective peaks of the isolated substrate and phosphorylated substrate were designated S and P. Those containing the assay buffer added therein in place of the enzyme solution were measured as a blank.
Inhibition ratio (%) of a test compound was calculated according to the following equation:
where A, B, and C represent P/(P+S) of a blank well, P/(P+S) of a control solution well, and P/(P+S) of a well containing the compound added therein, respectively.
IC50 value was calculated by regression analysis of the inhibition ratio and the test compound concentration (logarithm).

[1] = tested on: intracellular BTK (pY223) in Ramos cells; assay: Inhibition of self-phosphorylation activity of intracellular BTK in IgM-stimulated Ramos cells (Western blot, Test Example 3-1); format: cell-based; conditions: test compound 1 μM, 1 hour, IgM 10 μg/mL 10 minutes
Description: Combinations of primary antibody and secondary antibody as well as dilute concentrations used in the present test are as follows.

Dephosphorylated BTK = Dephosphorylated BTK (Homo sapiens, UniProt Q06187); assay: Test of activity inhibition against dephosphorylated BTK (mobility shift assay)
[2] = tested on: intracellular BTK (pY223) in Ramos cells; assay: cells; conditions: Homo sapiens, read-out: BTK phosphorylation inhibitory activity
Description: (§1) The supernatant was recovered by a centrifugal operation (at 15,000 rpm for 15 minutes) and the amount of protein was quantitatively determined. The supernatant was mixed with SDS-sample buffer and the mixture was reacted at 95° C. for 5 minutes thereby modifying the protein to obtain a sample solution. […] Thereafter, the protein in the gel was transferred to a PVDF membrane, using an iBlot gel transfer system (Life Technologies Corporation).
(§2) The unreacted secondary antibody was washed with TBST buffer and reacted according to the attached protocol, using ECL Prime Western Blotting Detection System (GE Healthcare Ltd.), and then each band was detected by chemiluminescence using a CCD camera (ATTO, Light-CaptureII). The detected band was digitized by densitometry (ATTO CS Analyzer ver.3.0) and an inhibition ratio was calculated from the intensity of a band in each group on the assumption that luminescence of a band of phosphorylated BTK of the compound no-addition and IgM stimulated group is 100%, whereas, luminescence of a band of phosphorylated BTK of the compound no-addition and IgM non-stimulated group is 0%. Each band of phosphorylated BTK was corrected by the total BTK.
(§3) Thereafter, IgM (Invitrogen, H15100) diluted with the medium was added so that the final concentration becomes 10 μg/mL, followed by incubation at 37° C. for 10 minutes.
(§4) The intracellular BTK autophosphorylation inhibiting activity was indicated with the mark “***” when 70% or more, with the mark “**” when 50% or more and less than 70%, and with the mark “*” when 30% or more and less than 50%.

[3] = tested on: intracellular BTK (pY223) in Ramos cells; conditions: test compound 0.3 μM, 1 hour, IgM 10 μg/mL 10 minutes
Description: as §1, §2, §3, §4

Dephosphorylated BTK, sequence (Q06187 whole entry): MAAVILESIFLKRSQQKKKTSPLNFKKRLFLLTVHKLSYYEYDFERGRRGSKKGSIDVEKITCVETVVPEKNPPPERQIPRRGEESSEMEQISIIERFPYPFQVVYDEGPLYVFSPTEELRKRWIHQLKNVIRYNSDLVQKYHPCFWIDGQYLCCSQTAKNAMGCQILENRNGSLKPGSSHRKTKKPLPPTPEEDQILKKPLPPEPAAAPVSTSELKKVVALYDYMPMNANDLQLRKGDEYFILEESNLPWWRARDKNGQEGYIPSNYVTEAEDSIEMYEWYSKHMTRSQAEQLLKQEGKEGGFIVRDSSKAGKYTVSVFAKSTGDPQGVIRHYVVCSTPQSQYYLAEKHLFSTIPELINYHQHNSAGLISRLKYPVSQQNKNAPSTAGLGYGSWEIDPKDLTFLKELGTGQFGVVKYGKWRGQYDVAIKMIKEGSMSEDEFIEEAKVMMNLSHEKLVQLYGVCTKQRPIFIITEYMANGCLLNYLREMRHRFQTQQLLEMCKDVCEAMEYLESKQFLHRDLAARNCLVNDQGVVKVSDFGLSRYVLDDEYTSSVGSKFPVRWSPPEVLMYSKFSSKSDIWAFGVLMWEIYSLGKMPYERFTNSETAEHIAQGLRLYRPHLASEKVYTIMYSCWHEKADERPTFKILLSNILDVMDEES
BTK, sequence (Q06187 whole entry): as above

| SMILES | IC50 (BTK) | IC50 (Dephosphorylated BTK) | BTK phosphorylation inhibition ratio [1] | inhibition at 0.3 µM [2] | BTK phosphorylation inhibitory activity [3] |
| --- | --- | --- | --- | --- | --- |
| COc1cc(Nc2ncnc(-c3cccc(NC(=O)c4ccc(C(C)(C)C)cc4)c3C)n2)cc(OC)c1OC [Example 1, 4-(tert-Butyl)-N-(2-methyl-3-[4-[(3,4,5-trimethoxyphenyl)amino]-1,3,5-triazin-2-yl]phenyl)benzamide] | 10 nM | 2.1 nM | 107% | > 70% | – |
| Cc1c(NC(=O)c2ccc(C(C)(C)C)cc2)cccc1-c1ncnc(Nc2ccc(C(=O)N3CCN(C)CC3)cc2)n1 [Example 4, 4-(tert-Butyl)-N-[2-methyl-3-(4-{[4-(4-methylpiperazine-1-carbonyl)phenyl]amino}-1,3,5-triazin-2-yl)phenyl]benzamide] | 10 nM | 4.2 nM | – | – | – |
| Cc1c(NC(=O)c2ccc(C(C)(C)C)cc2)cccc1-c1ncnc(Nc2ccc(C(=O)N3CCOC(CN)C3)cc2)n1 (stereo not shown) [Example 7, N-{3-[4-({4-[2-(Amino-methyl)morpholine-4-car-bonyl]phenyl}amino)-1,3,5-triazin-2-yl]-2-methylphenyl}-4-(tert-butyl)benzamide] | 8.2 nM | 2.5 nM | – | – | – |
| Cc1c(NC(=O)c2ccc(C(C)(C)C)cc2)cccc1-c1ncnc(Nc2ccc(C(=O)NCCN3CCOCC3)cc2)n1 [Example 8, 4-(tert-Butyl)-N-{2-meth-yl-3-[4-({4-[(2-morpho-linoethyl)carbamoyl]phenyl}amino)-1,3,5-triazin-2-yl]phenyl} benzamide] | 13.1 nM | 3.5 nM | – | – | – |
| Cc1c(NC(=O)c2ccc(C(C)(C)C)cc2)cccc1-c1ncnc(Nc2ccc(C(=O)N3CCC(O)CC3)cc2)n1 [Example 9, 4-(tert-Butyl)-N-[3-(4-{[4-(4-hydroxypiper-idine-1-carbonyl)phenyl]amino}-1,3,5-triazin-2-yl)-2-methylphen-yl]benzamide] | 12.6 nM | 2.1 nM | – | – | – |
| Nc1nc(Nc2ccc(N3CCOCC3)cc2)nc(-c2cccc(N3CCc4cc(C5CC5)cc(F)c4C3=O)c2CO)n1 [Example 44, 2-(3-{4-Amino-6-[(4-morpholinophenyl)amino]-1,3,5-triazin-2-yl}-2-(hydroxymethyl)phenyl)-6-cycropropyl-8-fluoro-3,4-dihydroisoquinolin-1(2H)-one] | – | – | – | – | *** (70% or more) |

Continued, in another order:

| IC50 (BTK) | IC50 (Dephosphorylated BTK) | SMILES | BTK phosphorylation inhibition ratio [1] | inhibition at 0.3 µM [2] | BTK phosphorylation inhibitory activity [3] |
| --- | --- | --- | --- | --- | --- |
| 12.8 nM | 3.2 nM | Cc1c(NC(=O)c2ccc(C(C)(C)C)cc2)cccc1-c1ncnc(Nc2ccc(C(=O)N3CCN(CCO)CC3)cc2)n1 [Example 10, 4-(tert-Butyl)-N-{3-[4-({4-[4-(2-hydroxyeth-yl)piperazine-1-carbo-nyl]phenyl}amino)-1,3,5-triazin-2-yl]-2-meth-ylphenyl}benzamide] | – | – | – |
| – | 0.8 nM | Cc1c(NC(=O)c2ccc(C(C)(C)C)cc2)cccc1-c1nc(N)nc(Nc2ccc(C(=O)N3CCOC(CN)C3)cc2)n1 (stereo not shown) [Example 32, N-{3-[4-Amino-6-({4-[2-(aminomethyl)morpho-line-4-carbonyl]phenyl}amino)-1,3,5-triazin-2-yl]-2-methylphenyl}-4-(tert-butyl)benz-amide] | – | > 70% | – |
| – | 1 nM | CN(C)CCCOc1ccc(Nc2nc(N)nc(-c3cccc(NC(=O)c4ccc(C(C)(C)C)cc4)c3CO)n2)cc1 [Example 70, N-{3-[4-Amino-6-({4-[3-(dimethylamino)prop-oxy]phenyl}amino)-1,3,5-triazin-2-yl]-2-(hydroxy-methyl)phenyl}-4-(tert-butyl)benzamide] | – | > 70% | – |
| – | 0.7 nM | Cn1cc(Nc2nc(N)nc(-c3cccc(N4CCc5cc(C6CC6)cc(F)c5C4=O)c3CO)n2)cn1 [Example 180, 2-(3-{4-Amino-6-[(1-methyl-1H-pyrazol-4-yl)amino]-1,3,5-triazin-2-yl}-2-(hydroxymeth-yl)phenyl)-6-cyclopro-pyl-8-fluoro-3,4-dihy-droisoquinolin-1(2H)-one] | – | > 70% | – |
| – | 1.1 nM | Cn1ccc(Nc2nc(N)nc(-c3cccc(N4CCc5cc(C6CC6)cc(F)c5C4=O)c3CO)n2)c1 [Example 213, 2-(3-{4-Amino-6-[(1-meth-yl-1H-pyrrol-3-yl)amino]-1,3,5-triazin-2-yl}-2-(hydroxymethyl)phenyl)-6-cyclopropyl-8-fluoro-3,4-dihydro-isoquinolin-1(2H)-one] | – | > 70% | – |
| – | 0.3 nM | Nc1nc(Nc2cnn(CC3CC3)c2)nc(-c2cccc(N3CCc4cc(C5CC5)cc(F)c4C3=O)c2CO)n1 [Example 214, 2-[3-(4-Amino-6-{[1-(cyclo-propylmethyl)-1H-pyrazol-4-yl]amino}-1,3,5-triazin-2-yl)-2-(hydroxymethyl)phenyl]-6-cyclopropyl-8-fluoro-3,4-dihydroisoquinolin-1(2H)-one] | – | > 70% | – |
